The values that follow come from patent publication US9738655B2, “Tetrahydroisoquinolines containing substituted azoles as factor XIa inhibitors” (BRISTOL-MYERS SQUIBB COMPANY, priority 2013, dated 2017).

Structures can show the parent of a compound that is named as a salt. Where two headings read alike, the source gives them in different places. Where only a bound is given, the exact number is not on record here.

In test [1] the target is purified human plasma kallikrein (Homo sapiens (Human), UniProt P03952). Kind of test: Plasma kallikrein enzyme inhibition assay (chromogenic substrate S-2302). It counts as biochemical.
Chain of purified human plasma kallikrein (P03952 391-638): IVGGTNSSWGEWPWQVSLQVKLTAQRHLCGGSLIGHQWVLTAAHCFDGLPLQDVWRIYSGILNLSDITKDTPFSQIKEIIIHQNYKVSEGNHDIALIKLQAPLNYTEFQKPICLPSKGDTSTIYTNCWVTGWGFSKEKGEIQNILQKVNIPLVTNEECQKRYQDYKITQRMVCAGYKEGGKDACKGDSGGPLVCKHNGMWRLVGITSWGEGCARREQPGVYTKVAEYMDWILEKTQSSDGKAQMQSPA
Chain of purified human plasma kallikrein (P03952 20-390 partner): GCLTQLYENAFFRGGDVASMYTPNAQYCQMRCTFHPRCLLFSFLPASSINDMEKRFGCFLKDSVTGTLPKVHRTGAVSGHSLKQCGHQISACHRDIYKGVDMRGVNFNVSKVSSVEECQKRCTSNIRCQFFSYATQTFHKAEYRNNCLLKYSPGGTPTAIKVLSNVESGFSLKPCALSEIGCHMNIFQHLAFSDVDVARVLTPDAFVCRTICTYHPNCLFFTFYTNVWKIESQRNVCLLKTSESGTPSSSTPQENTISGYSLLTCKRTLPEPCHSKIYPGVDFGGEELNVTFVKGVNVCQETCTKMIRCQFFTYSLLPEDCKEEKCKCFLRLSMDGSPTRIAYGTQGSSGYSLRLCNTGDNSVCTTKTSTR
Description: (§1) The effectiveness of compounds of the present invention as inhibitors of the coagulation Factors XIa, VIIa, IXa, Xa, XIIa, plasma kallikrein or thrombin, can be determined using a relevant purified serine protease, respectively, and an appropriate synthetic substrate. The rate of hydrolysis of the chromogenic or fluorogenic substrate by the relevant serine protease was measured both in the absence and presence of compounds of the present invention. […] A decrease in the rate of absorbance or fluorescence change in the presence of inhibitor is indicative of enzyme inhibition. […] The results of this assay are expressed as the inhibitory constant, Ki.
(§2) Values of Ki were determined by allowing the protease to react with the substrate in the presence of the inhibitor.
The following relationships were used to calculate Ki values: (Vmax*S)/(Km+S); (vo−vs)/vs=I/(Ki(1+S/Km)) for a competitive inhibitor with one binding site; or vs/vo=A+((B−A)/1+((IC50/(I)n))); and Ki−IC50/((1+S/Km) for a competitive inhibitor where:
In test [2] the target is purified human Factor XIa (Homo sapiens (Human), UniProt P03951). Kind of test: Factor XIa enzyme inhibition assay (chromogenic substrate S-2366).
Chain of purified human Factor XIa (P03951 388-625): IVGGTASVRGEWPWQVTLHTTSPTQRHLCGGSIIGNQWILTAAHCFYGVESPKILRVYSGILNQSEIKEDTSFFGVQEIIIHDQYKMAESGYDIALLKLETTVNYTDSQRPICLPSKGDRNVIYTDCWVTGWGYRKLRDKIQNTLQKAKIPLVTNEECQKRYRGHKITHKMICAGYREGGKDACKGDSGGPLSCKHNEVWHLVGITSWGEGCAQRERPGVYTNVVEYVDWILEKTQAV
Chain of purified human Factor XIa (P03951 19-387 partner): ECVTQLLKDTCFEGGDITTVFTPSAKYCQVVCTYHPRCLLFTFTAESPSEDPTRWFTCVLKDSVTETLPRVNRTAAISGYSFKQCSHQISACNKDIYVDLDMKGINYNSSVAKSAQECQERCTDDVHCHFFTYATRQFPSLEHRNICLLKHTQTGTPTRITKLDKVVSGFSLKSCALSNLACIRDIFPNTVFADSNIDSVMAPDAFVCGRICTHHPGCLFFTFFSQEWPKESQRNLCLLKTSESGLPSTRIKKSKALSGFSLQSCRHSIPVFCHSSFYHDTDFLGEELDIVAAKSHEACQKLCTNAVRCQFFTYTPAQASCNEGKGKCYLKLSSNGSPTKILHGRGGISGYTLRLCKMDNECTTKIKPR
Description: as §1, §2
Setting [3] is: read-out: Factor XIa Ki, measured at 25° C.
Setting [4] is: measured at 25° C. (no asterisk).

As for `COC(=O)c1ccc(NC(=O)[C@@H]2c3cccc(N4CCN(C5COC5)CC4)c3CCN2C(=O)[C@H]2CC(c3cccc(Cl)c3F)=NO2)cc1` [Example 232, Methyl 4-((S)-2-((R)-3-(3-chloro-2-fluorophenyl)-4,5-dihydroisoxazole-5-carbonyl)-5-(4-(oxetan-3-yl)piperazin-1-yl)-1,2,3,4-tetrahydroisoquinoline-1-carboxamido)benzoate, 2 TFA salt], the inhibitory constant (Ki) in test [1] (measured at 37° C. (*)) stood at 29.7 nM; in test [2] (setting [3]), 4130 nM.

Turning to “4-(2-(5-amino-1-(3-chloro- 2-fluorophenyl)-1H- pyrazole-4-carbonyl)-5-(4- methylpiperazin-1- yl)-1,2,3,4- tetrahydroisoquinoline-1- carboxamido)benzoic acid, 2 TFA salt [Example 212]”, the Ki came to 2.89 nM in test [1] (setting [4]) and 20.9 nM in test [2] (setting [3]).

In the case of `COC1CCN(c2cccc3c2CCN(C(=O)c2cn(-c4cccc(Cl)c4F)nn2)C3C(=O)Nc2ccc3c(c2)CCC(=O)N3C)CC1` (stereo not shown) [Example 189, 2-(1-(3-Chloro-2-fluorophenyl)-1H-1,2,3-triazole-4-carbonyl)-5-(4-methoxypiperidin-1-yl)-N-(1-methyl-2-oxo-1,2,3,4-tetrahydroquinolin-6-yl)-1,2,3,4-tetrahydroisoquinoline-1-carboxamide, TFA salt], the inhibition constant Ki in test [1] (setting [4]) is 540 nM; in test [2] (setting [3]), 411 nM.

Take `COC(=O)c1ccc(NC(=O)[C@H]2c3cccc(-c4cncnc4)c3CCN2C(=O)c2cn(-c3cccc(Cl)c3F)nn2)cc1` [Example 25, (R)-Methyl 4-(2-(1-(3-chloro-2-fluorophenyl)-1H-1,2,3-triazole-4-carbonyl)-5-(pyrimidin-5-yl)-1,2,3,4-tetrahydroisoquinoline-1-carboxamido)benzoate]: the Ki is more than 4340 nM in test [1] (measured at 37° C. (*)) and 3550 nM in test [2] (setting [3]).

Regarding `O=C(O)c1ccc(NC(=O)C2c3cccc(F)c3CCN2C(=O)c2cn(-c3cccc(Cl)c3F)nn2)cc1` (stereo not shown) [Example 195, 4-(2-(1-(3-Chloro-2-fluorophenyl)-1H-1,2,3-triazole-4-carbonyl)-5-fluoro-1,2,3,4-tetrahydroisoquinoline-1-carboxamido)benzoic acid], the Ki was determined as 30.9 nM in test [1] (setting [4]) and 40.1 nM in test [2] (setting [3]).

As to `COC1CCN(c2cccc3c2CCN(C(=O)c2cnn(-c4cccc(Cl)c4F)c2N)C3C(=O)Nc2ccc(C(=O)O)cc2)CC1` (racemic) [Example 309, 4-(2-(5-amino-1-(3-chloro-2-fluorophenyl)-1H-pyrazole-4-carbonyl)-5-(4-methoxypiperidin-1-yl)-1,2,3,4-tetrahydroisoquinoline-1-carboxamido)benzoic acid, 2 TFA salt], the values for the Ki in test [1] (setting [4]) and in test [2] were 28.8 nM and less than 5 nM, respectively.

For the compound `COC1CCN(c2cccc3c2CCN(C(=O)c2cnn(-c4cccc(Cl)c4F)c2)[C@H]3C(=O)Nc2ccc(C(=O)O)cc2)CC1` [Example 316, (R)-4-(2-(1-(3-chloro-2-fluorophenyl)-1H-pyrazole-4-carbonyl)-5-(4-methoxypiperidin-1-yl)-1,2,3,4-tetrahydroisoquinoline-1-carboxamido)benzoic acid, TFA salt], the Ki in test [1] (setting [4]) was 578 nM; in test [2] it was 42.9 nM.

On to `CNC(=O)c1ccc(-c2cccc3c2CCN(C(=O)c2cn(-c4cccc(Cl)c4F)nn2)C3C(=O)Nc2ccc(CC(=O)O)cc2)cn1` (stereo not shown) [Example 117, 2-(4-(2-(1-(3-Chloro-2-fluorophenyl)-1H-1,2,3-triazole-4-carbonyl)-5-(6-(methylcarbamoyl)pyridin-3-yl)-1,2,3,4-tetrahydroisoquinoline-1-carboxamido)phenyl)acetic acid, TFA salt], for which the Ki in test [1] (setting [4]) was 16.3 nM; in test [2] (setting [3]), less than 5 nM.
